Test results reported in article PMC3850926, “Evaluation of the adverse event profile and pharmacodynamics of toceranib phosphate administered to dogs with solid tumors at doses below the maximum tolerated dose” (BMC Veterinary Research, 2013).
“Also recorded” adds a separate entry of the source.

Columns and labels:
dogs with solid tumors = assay: Assessment of adverse events (VCOG-CTCAE); assay type: in vivo, dog
Experimental: All dogs were placed on famotidine at 0.5-1 mg/kg once per day at study initiation and owners were instructed to administer the toceranib in the morning with food. […] Dogs were evaluated for AEs on days 0, 7, 14, and 30 of study, as well as at interim time points as needed. AEs were defined and graded according to the published VCOG-CTCAE criteria. Disease progression or signs and symptoms definitely related to disease were not considered AEs.

VEGF = assay: Plasma VEGF concentrations (Canine VEGF Quantikine ELISA); assay type: in vivo, dog
Experimental: A total of 40 dogs were enrolled in this study, with dogs initially assigned to toceranib at 2.5 mg/kg or 2.75 mg/kg EOD. All dogs were placed on famotidine at 0.5-1 mg/kg once per day at study initiation and owners were instructed to administer the toceranib in the morning with food. Physical examination, routine bloodwork (CBC, biochemistry profile) and blood sampling for assessment of toceranib and VEGF plasma concentrations was performed pretreatment and on days 0, 7, 14 and 30 of treatment. […] Owners of dogs that experienced CR, PR, or SD at study day 30 were offered the option of continuing toceranib administration for an additional 6 months (provided at no cost), although patient data was not officially captured beyond day 30.
Blood was collected into EDTA tubes and centrifuged at 3000 × g for 10 minutes. Plasma was then collected and split evenly into two portions in cryovials, then stored at -80°C until analysis was performed for toceranib and VEGF concentrations.
A solid phase sandwich ELISA was used to measure plasma concentrations of VEGF. […] All standards and samples were performed in duplicate and the absorbance reading at […] was subtracted from the absorbance reading at […].
VEGF concentrations were analyzed in terms of percent change from baseline. […]

KIT = details: dogs with MCT, 8 hours post drug administration; cited from earlier work
[1] = number of AEs, 40 dogs, 2.4-2.9 mg/kg EOD, 30 days

With `Cc1[nH]c(/C=C2\C(=O)Nc3ccc(F)cc32)c(C)c1C(=O)NCCN1CCCC1` [toceranib, Toceranib phosphate] the “grade 3 or 4 GI adverse events” value (dogs with solid tumors; 2.4-2.9 mg/kg EOD) was “no grade 3 or 4 GI adverse events”, the “dogs with increased BUN without concomitant increase in creatinine” value (dogs with solid tumors; 6 had concurrent gastrointestinal upset) was 9 dogs and the “dogs with grade 1 anemia” value (dogs with solid tumors; 6 had mild anemia of chronic disease before treatment) was “Thirteen”. For the same molecule, the “clinical evidence of hepatotoxicity” value (dogs with solid tumors; 40 dogs, 30 days) was “no dogs”, the “dogs that developed grade 1 anorexia (number)” value (dogs with solid tumors; 40 dogs, 30 days) was “Thirteen” and the “dogs that developed grade 1 anorexia (percent)” value (dogs with solid tumors; 40 dogs, 30 days) was 32.5%. For the same molecule, the “dogs that developed grade 1 diarrhea (number)” value (dogs with solid tumors; 40 dogs, 30 days) was “Fifteen”, the “dogs that developed grade 1 vomiting (number)” value (dogs with solid tumors; 40 dogs, 30 days) was “Eighteen” and the “dogs that developed grade 2 diarrhea” value (dogs with solid tumors; 40 dogs, 30 days) was “Six”. The “dogs with grade 1 increases in AST” value (dogs with solid tumors; 40 dogs, 30 days) was “Five”, the “dogs with grade 1 thrombocytopenia” value (dogs with solid tumors; 40 dogs, 30 days) was 2 dogs and the “dogs with grade 2 anorexia” value (dogs with solid tumors; 40 dogs, 30 days) was 1 dogs. The “dogs with grade 2 colitis” value (dogs with solid tumors; 40 dogs, 30 days) was “two”, the “dogs with grade 2 vomiting” value (dogs with solid tumors; 40 dogs, 30 days) was 3 dogs and the “dogs with grade 3 hypertension” value (dogs with solid tumors; 40 dogs, 30 days) was 2 dogs. For the same molecule, the “dogs with grade 3 lameness” value (dogs with solid tumors; 40 dogs, 30 days) was 1 dogs, the “dogs with mild-to-moderate lameness (grade 1–2)” value (dogs with solid tumors; 40 dogs, 30 days) was 10 dogs and the “dogs with more than one episode of grade 1 diarrhea” value (dogs with solid tumors; 40 dogs, 30 days) was 10 dogs. For the same molecule, the “dogs with more than one event of grade 1 vomiting” value (dogs with solid tumors; 40 dogs, 30 days) was 5 dogs, the “dogs with transient grade 1 elevations in ALT” value (dogs with solid tumors; 40 dogs, 30 days) was 7 dogs and the “dogs with grade 1 neutropenia (number)” value (dogs with solid tumors; after 1–3 weeks of therapy) was 20/40. For the same molecule, the “share of AEs that were grade 1 or grade 2” value (dogs with solid tumors; all AEs of the study) was 86%, the “share of AEs that were grade 2” value (dogs with solid tumors; all AEs of the study) was 12% and the “dogs that developed hypertension (any grade)” value (dogs with solid tumors; blood pressure measured only in animals with signs) was 3 dogs. The “adverse event profile compared to the label dose of 3.25 mg/kg EOD” value (dogs with solid tumors; dog, in vivo) was “substantially reduced adverse event profile”, the “dogs with grade 3 AST elevation” value (dogs with solid tumors; end of study period) was 1 dogs and the “dogs with weight loss” value (dogs with solid tumors; grade 1 event) was 3 dogs. The “dogs with lethargy (number)” value (dogs with solid tumors; grade 1 or 2, 40 dogs, 30 days) was 13 dogs, the “dogs with lethargy (percent)” value (dogs with solid tumors; grade 1 or 2, 40 dogs, 30 days) was 32.5% and the “dogs requiring a dose modification” value (dogs with solid tumors; initiated at 2.5 mg/kg) was “five”. For the same molecule, the “dogs requiring a dose modification” value (dogs with solid tumors; initiated at 2.75 mg/kg) was “three”, the “Alopecia, Grade 1” value (dogs with solid tumors; [1]) was 1 and the “Anemia, Grade 1” value (dogs with solid tumors; [1]) was 13. The “Anorexia, Grade 1” value (dogs with solid tumors; [1]) was 15, the “Anorexia, Grade 2” value (dogs with solid tumors; [1]) was 1 and the “Colitis, Grade 2” value (dogs with solid tumors; [1]) was 2. For the same molecule, the “Constipation, Grade 1” value (dogs with solid tumors; [1]) was 1, the “Cough, Grade 1” value (dogs with solid tumors; [1]) was 4 and the “Dermatitis, Grade 1” value (dogs with solid tumors; [1]) was 1. The “Diarrhea, Grade 1” value (dogs with solid tumors; [1]) was 34, the “Diarrhea, Grade 2” value (dogs with solid tumors; [1]) was 6 and the “Epistaxis, Grade 1” value (dogs with solid tumors; [1]) was 3. The “Fever, Grade 2” value (dogs with solid tumors; [1]) was 1, the “Hand-foot syndrome, Grade 1” value (dogs with solid tumors; [1]) was 1 and the “Hypertension, Grade 1” value (dogs with solid tumors; [1]) was 1. For the same molecule, the “Hypertension, Grade 3” value (dogs with solid tumors; [1]) was 2, the “Hypopigmentation, Grade 1” value (dogs with solid tumors; [1]) was 2 and the “Ileus, Grade 3” value (dogs with solid tumors; [1]) was 1. The “Increase ALP, Grade 1” value (dogs with solid tumors; [1]) was 9, the “Increase ALP, Grade 2” value (dogs with solid tumors; [1]) was 2 and the “Increase ALP, Grade 3” value (dogs with solid tumors; [1]) was 1. The “Increase ALT, Grade 1” value (dogs with solid tumors; [1]) was 7, the “Increase ALT, Grade 3” value (dogs with solid tumors; [1]) was 1 and the “Increase ALT, Grade 4” value (dogs with solid tumors; [1]) was 1. For the same molecule, the “Increase AST, Grade 1” value (dogs with solid tumors; [1]) was 5, the “Increase AST, Grade 3” value (dogs with solid tumors; [1]) was 1 and the “Increase BUN, Grade 1” value (dogs with solid tumors; [1]) was 9. The “Increase BUN, Grade 2” value (dogs with solid tumors; [1]) was 1, the “Increase CK, Grade 1” value (dogs with solid tumors; [1]) was 2 and the “Lameness, Grade 1” value (dogs with solid tumors; [1]) was 6. For the same molecule, the “Lameness, Grade 2” value (dogs with solid tumors; [1]) was 8, the “Lameness, Grade 3” value (dogs with solid tumors; [1]) was 1 and the “Lethargy, Grade 1” value (dogs with solid tumors; [1]) was 15. For the same molecule, the “Lethargy, Grade 2” value (dogs with solid tumors; [1]) was 2, the “Neutropenia, Grade 1” value (dogs with solid tumors; [1]) was 20 and the “Neutropenia, Grade 2” value (dogs with solid tumors; [1]) was 1. For the same molecule, the “Ocular discharge, Grade 1” value (dogs with solid tumors; [1]) was 3, the “Pancreatitis, Grade 3” value (dogs with solid tumors; [1]) was 1 and the “Panting, Grade 1” value (dogs with solid tumors; [1]) was 3. For the same molecule, the “Protein losing nephropathy, Grade 1” value (dogs with solid tumors; [1]) was 4, the “Pruritus, Grade 1” value (dogs with solid tumors; [1]) was 1 and the “Thrombocytopenia, Grade 1” value (dogs with solid tumors; [1]) was 2. The “Vomiting, Grade 1” value (dogs with solid tumors; [1]) was 23, the “Vomiting, Grade 2” value (dogs with solid tumors; [1]) was 3 and the “Weight loss, Grade 1” value (dogs with solid tumors; [1]) was 3. For the same molecule, the “all adverse events, Grade 1 (total)” value (dogs with solid tumors; [1]) was 188, the “all adverse events, Grade 2 (total)” value (dogs with solid tumors; [1]) was 27 and the “all adverse events, Grade 3 (total)” value (dogs with solid tumors; [1]) was 8. The “all adverse events, Grade 4 (total)” value (dogs with solid tumors; [1]) was 1, the “lethargy, grade 1 episodes among the affected dogs” value (dogs with solid tumors; remainder grade 2) was 11 and the “dogs with depigmentation and thinning of the footpads in all 4 limbs” value (dogs with solid tumors; resolved after 1 week discontinuation) was “One”. The “weight loss, percent of initial recorded body weight” value (dogs with solid tumors; the 3 affected dogs) was 5-10%, the “dogs with dose changed (drug holiday and/or dose reduction), number” value (dogs with solid tumors; throughout the study period) was 8 dogs and the “dogs with dose changed (drug holiday and/or dose reduction), percent” value (dogs with solid tumors; throughout the study period) was 20%. For the same molecule, the “patients that developed protein losing nephropathy (PLN)” value (dogs with solid tumors; without an apparent cause) was 4 patients, the “change in plasma VEGF concentrations over the 30 day treatment period” value (VEGF; 8 hours post dosing, days 0, 7, 14, 30, p < 0.001) was “increase significantly; also recorded: increased over time” and the “association of change in VEGF with Cmax and Tmax” value (VEGF; linear mixed models) was “associated with Cmax (p < 0.001), but not Tmax (p = 0.74)”. For the same molecule, the “lowest plasma concentration with intratumoral target modulation (downregulation of KIT and/or ERK phosphorylation)” value (KIT) was 30 ng/mL.
